Source: patent US20240342175A1, “Compositions and Methods for Treating Spinal Cord Injury and Synaptic Dysfunction” (priority 2021, published 2024)
Like-named read-outs stand apart in the source and are kept apart here.

Legend:
[1] = cited from earlier work
Fmr1 knock-out mice [2] = test: Fear conditioning in Fmr1 knock-out mice; format: in vivo; set-up: key: X indicates failure to ameliorate the phenotype; Y reversed the phenotype; details: repeat experiment, 15 days
Procedure: (§1) Fmr1 knock-out mice (n=10) were orally administered 10 mg/kg/day or 100 mg/kg/day belumosudil or vehicle (BID) for 15 days. Control groups included wild type mice and knock out mice with vehicle. Mice treated with 100 mg/kg belumosudil ameliorated the following behavioral phenotypes: open field/hyperactivity, self-grooming/stereotypy, hyponeophagia/anxiety, nesting/test of daily living, 3-chamber social novelty/sociability; resident intruder and fear conditioning.
(§2) The experiment was repeated where knock out mice received belumosudil at 20 mg/kg/day, 60 mg/kg/day and 100 mg/kg/day (BID) for 15 days. One group of knock out mice received 10 mg/kg/day belumosudil in combination with 10 mg/kg/day minocycline for 15 days. Control groups included wild type mice and knock out mice with vehicle. The results are set forth below, where X indicates failure to ameliorate the phenotype and Y reversed the phenotype: […]

Fmr1 knock-out mice [3] = test: Resident intruder in Fmr1 knock-out mice; format: in vivo; set-up: key: X indicates failure to ameliorate the phenotype; Y reversed the phenotype; details: repeat experiment, 15 days
Procedure: as §1, §2

Fmr1 knock-out mice [4] = test: Hyponeophagia / anxiety in Fmr1 knock-out mice; format: in vivo; set-up: key: X indicates failure to ameliorate the phenotype; Y reversed the phenotype; details: repeat experiment, 15 days
Procedure: as §1, §2

Fmr1 knock-out mice [5] = test: 3-chamber social novelty / sociability in Fmr1 knock-out mice; format: in vivo; set-up: key: X indicates failure to ameliorate the phenotype; Y reversed the phenotype; details: repeat experiment, 15 days
Procedure: as §1, §2

Fmr1 knock-out mice [6] = test: Nesting / test of daily living in Fmr1 knock-out mice; format: in vivo; set-up: key: X indicates failure to ameliorate the phenotype; Y reversed the phenotype; details: repeat experiment, 15 days
Procedure: as §1, §2

Fmr1 knock-out mice [7] = test: Self-grooming / stereotypy in Fmr1 knock-out mice; format: in vivo; set-up: key: X indicates failure to ameliorate the phenotype; Y reversed the phenotype; details: repeat experiment, 15 days
Procedure: as §1, §2

Fmr1 knock-out mice [8] = test: Open field / hyperactivity in Fmr1 knock-out mice; format: in vivo; set-up: key: X indicates failure to ameliorate the phenotype; Y reversed the phenotype; details: repeat experiment, 15 days
Procedure: as §1, §2

Fmr1 knock-out mice [9] = test: Novel object recognition / cognition in Fmr1 knock-out mice; format: in vivo; set-up: key: X indicates failure to ameliorate the phenotype; Y reversed the phenotype; details: repeat experiment, 15 days
Procedure: as §1, §2

[10] = belumosudil 100 mg/kg/day (BID)

CC(C)NC(=O)COc1cccc(-c2nc(Nc3ccc4[nH]ncc4c3)c3ccccc3n2)c1 [belumosudil]
AE: cough ([1]; 200 mg once daily (QD) arm): 18 | AE: diarrhea ([1]; 200 mg once daily (QD) arm): 24% | AE: dyspnea ([1]; 200 mg once daily (QD) arm): 20% | AE: edema ([1]; 200 mg once daily (QD) arm): 24% | AE: fatigue ([1]; 200 mg once daily (QD) arm): 30% | AE: liver related investigations ([1]; 200 mg once daily (QD) arm): 20% | AE: nausea ([1]; 200 mg once daily (QD) arm): 23% | Serious AE: nausea ([1]; 200 mg once daily (QD) arm): 3% | Serious AE: pneumonia ([1]; 200 mg once daily (QD) arm): 3% | Serious AE: pyrexia ([1]; 200 mg once daily (QD) arm): 5% | Serious AE: vomiting ([1]; 200 mg once daily (QD) arm): 3% | AE: cough ([1]; 200 mg twice daily (BID) arm): 14% | AE: diarrhea ([1]; 200 mg twice daily (BID) arm): 18% | AE: dyspnea ([1]; 200 mg twice daily (BID) arm): 12% | AE: edema ([1]; 200 mg twice daily (BID) arm): 15% | AE: fatigue ([1]; 200 mg twice daily (BID) arm): 18% | AE: liver related investigations ([1]; 200 mg twice daily (BID) arm): 23% | AE: nausea ([1]; 200 mg twice daily (BID) arm): 20% | Serious AE: nausea ([1]; 200 mg twice daily (BID) arm): 2% | Serious AE: pneumonia ([1]; 200 mg twice daily (BID) arm): 3% | Serious AE: pyrexia ([1]; 200 mg twice daily (BID) arm): 0 | Serious AE: vomiting ([1]; 200 mg twice daily (BID) arm): 2% | safety and efficacy in clinical trial ([1]; 132 patients, 200 mg QD or 200 mg BID): safe and efficacious | Fear Conditioning (Fmr1 knock-out mice [2]; belumosudil 20 mg/kg/day (BID)): X | Fear Conditioning (Fmr1 knock-out mice [2]; belumosudil 60 mg/kg/day (BID)): Y | Fear Conditioning (Fmr1 knock-out mice [2]; [10]): Y | Resident Intruder (Fmr1 knock-out mice [3]; belumosudil 20 mg/kg/day (BID)): X | Resident Intruder (Fmr1 knock-out mice [3]; belumosudil 60 mg/kg/day (BID)): Y | Resident Intruder (Fmr1 knock-out mice [3]; [10]): Y | Hyponeophagia: Anxiety (Fmr1 knock-out mice [4]; belumosudil 20 mg/kg/day (BID)): X | Hyponeophagia: Anxiety (Fmr1 knock-out mice [4]; belumosudil 60 mg/kg/day (BID)): X | Hyponeophagia: Anxiety (Fmr1 knock-out mice [4]; [10]): Y | 3 Chamber Social Novelty: Sociability (Fmr1 knock-out mice [5]; belumosudil 20 mg/kg/day (BID)): X | 3 Chamber Social Novelty: Sociability (Fmr1 knock-out mice [5]; belumosudil 60 mg/kg/day (BID)): X | 3 Chamber Social Novelty: Sociability (Fmr1 knock-out mice [5]; [10]): Y | Nesting: Test of Daily Living (Fmr1 knock-out mice [6]; belumosudil 20 mg/kg/day (BID)): Y | Nesting: Test of Daily Living (Fmr1 knock-out mice [6]; belumosudil 60 mg/kg/day (BID)): Y | Nesting: Test of Daily Living (Fmr1 knock-out mice [6]; [10]): Y | Self-Grooming: Stereotypy (Fmr1 knock-out mice [7]; belumosudil 20 mg/kg/day (BID)): X | Self-Grooming: Stereotypy (Fmr1 knock-out mice [7]; belumosudil 60 mg/kg/day (BID)): X | Self-Grooming: Stereotypy (Fmr1 knock-out mice [7]; [10]): Y | Open Field: Hyperactivity (Fmr1 knock-out mice [8]; belumosudil 20 mg/kg/day (BID)): X | Open Field: Hyperactivity (Fmr1 knock-out mice [8]; belumosudil 60 mg/kg/day (BID)): X | Open Field: Hyperactivity (Fmr1 knock-out mice [8]; [10]): Y | Novel Object Recognition: Cognition (Fmr1 knock-out mice [9]; belumosudil 20 mg/kg/day (BID)): X | Novel Object Recognition: Cognition (Fmr1 knock-out mice [9]; belumosudil 60 mg/kg/day (BID)): X | Novel Object Recognition: Cognition (Fmr1 knock-out mice [9]; [10]): X
